The results in this text go back to ChEMBL document CHEMBL3817781, “Identifying Interactions that Determine Fragment Binding at Protein Hotspots” (J Med Chem, 2016).

The target of this test is T1, Pantothenate synthetase (Mycobacterium tuberculosis, UniProt P9WIL5).
T1 sequence (P9WIL5 whole entry): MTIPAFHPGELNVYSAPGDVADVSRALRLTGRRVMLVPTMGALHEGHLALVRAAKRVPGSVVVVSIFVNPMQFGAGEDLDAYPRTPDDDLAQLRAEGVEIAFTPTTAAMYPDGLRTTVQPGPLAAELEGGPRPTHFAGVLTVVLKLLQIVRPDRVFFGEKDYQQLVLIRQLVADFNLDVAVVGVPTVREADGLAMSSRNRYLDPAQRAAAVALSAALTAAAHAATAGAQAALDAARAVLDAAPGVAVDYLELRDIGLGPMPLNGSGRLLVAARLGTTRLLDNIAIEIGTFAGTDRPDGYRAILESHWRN
Description: Inhibition of Mycobacterium tuberculosis pantothenate synthetase expressed in Escherichia coli.

One may read the IC50 as the concentration at which inhibition is half-maximal. Lower therefore signals greater potency. `COc1ccc2c(c1)cc(C(=O)NS(=O)(=O)Cc1ccc(C(F)(F)F)cc1)n2CC(=O)O` came in with an IC50 of 250 nM. In other words, the sub-micromolar range.
